Experiments:
[1] = test system: human intestinal microbiota; assay: SCFA production after omega-3 amino acid salts and controls (Example 2); type: cell-based; conditions: salts 1.4 mg/ml, FFA 0.96, Lys 0.49, Arg 0.52, Orn 0.5 mg/ml; for Acetate, change compared to control / Propionate, change compared to control / n-Butyrate, change compared to control: triplicates
Description: (§1) To determine the effect of a EPA/DHA lysine salt (EPA/DHA-Lys) on adult colonic microbiota, an intestinal screening model was used (I-screen, TNO, the Netherlands). Therefore, the I-screen model was inoculated with standard human adult fecal microbiota material, which consisted of pooled fecal donations from six healthy adult volunteers (Caucasian, European lifestyle and nutrition). The fecal material was mixed and grown in a fed-batch fermenter for 40 hours to create a standardized microbiota as described previously.
(§2) The intestinal microbiota was cultured in vitro in modified standard ileal efflux medium (SIEM), the composition of which was described by Minekus et al.. All components were supplied by Trititium Microbiology (Veldhoven, The Netherlands). The pH of the medium was adjusted to 5.8.
(§3) For the I-screen fermentations, the pre-cultured standardized fecal inoculum was diluted 50 times in modified SIEM. EPA/DHA-Lys was introduced into the I-screen to final concentrations of 1.4 mg/ml and 1.5 mg/ml, respectively; omega-3 ethyl ester and fish oil at 1.4 mg/ml each. Inulin was added as a control at a final concentration of 4 mg/ml. […] All experiments were carried out in triplicates.
(§4) For the analysis of short-chain fatty acids in exposed material from the I-screen, samples were centrifuged (˜4000 g, 5 min), clear supernatant was filter sterilized (0.45 μm) and a mixture of formic acid (20%), methanol and 2-ethyl butyric acid (internal standard, 2 mg/ml in methanol) was added.
The effects of different omega-3 amino acid salts omega-3-lysine (omega-3-lys), omega-3-arginine (omega-3-arg) and omega-3-ornithine (omega-3-orn) and their respective controls (free fatty acids (FFA), amino acids lysine (lys), arginine (arg) and ornithine (orn)) on SCFA production by an intestinal microbiota were analyzed.

[2] = in vivo; cited from earlier work
human fecal microbiota 1 = assay: TIM-2 in vitro colon model, SCFA production, microbiota 1 (Example 3); type: cell-based; conditions: for Cumulative production of acetate / Cumulative production of butyrate / Cumulative production of propionate: lumen and dialysate, duplicates
From the text: To confirm the results for omega-3 amino acid salts, using omega-3 lysine as an example, an additional, independent and more advanced model of fermentation by the human colonic microbiota was applied, the TIM-2 model. Next to omega-3 lysine the prebiotic carbohydrate L-rhamnose was also applied. TIM-2 is an abbreviation of TNO's in vitro model-2, an advanced dynamic, computer-controlled in vitro model of the adult human colon. TIM-2 simulates to a high degree the successive dynamic processes in the colon and is predictive for what happens in human individuals. The following in vivo conditions are simulated in this model: body temperature, pH in the lumen, composition and rate of secretion, delivery of a pre-digested substrate from the ‘ileum’ (SIEM), mixing and transport of the intestinal contents, absorption of water and microbial metabolites and presence of a complex, high density, metabolically active, anaerobic fecal microbiota of human origin. The model was set-up and inoculated with the microbiota on the first day. Following an overnight adaptation period in SIEM, the test-products were fed at final concentrations of 1.4 mg/ml EPA/DHA-Lys or 1 mg/ml L-rhamnose in SIEM during an intervention period of 72 hrs. Cultivation in SIEM without any additional substance served as control condition. Samples were taken from the lumen and the dialysate every 24 hrs (t0, t24, t48 and t72) to study the metabolic activity of the gut microbiota (SCFA production) and changes in composition of the gut microbiota (16S rRNA gene analysis). Samples were analyzed for SCFA by ion-chromatography. […] The order of Pr/Ac for the 72 h treatments is control (SIEM)<L-rhamnose<EPA/DHA-Lys (ω-3)<L-rhamnose+EPA/DHA-Lys (ω-3).

human fecal microbiota 2 = assay: TIM-2 in vitro colon model, SCFA production, microbiota 2 (Example 6); type: cell-based; conditions: for Cumulative production of acetate / Cumulative production of butyrate / Cumulative production of propionate: lumen and dialysate, duplicates
From the text: TIM-2 is an abbreviation of TNO's in vitro model-2, an advanced dynamic, computer-controlled in vitro model of the adult human colon. TIM-2 simulates to a high degree the successive dynamic processes in the colon and is predictive for what happens in human individuals. The following in vivo conditions are simulated in this model: body temperature, pH in the lumen, composition and rate of secretion, delivery of a pre-digested substrate from the ‘ileum’ (SIEM), mixing and transport of the intestinal contents, absorption of water and microbial metabolites and presence of a complex, high density, metabolically active, anaerobic fecal microbiota of human origin.
The model was set-up and inoculated with the microbiota on the first day. Following an overnight adaptation period in SIEM, the test-products were fed at final concentrations of 1.4 mg/ml EPA/DHA-Lys or 1 mg/ml L-rhamnose in SIEM during an intervention period of 72 hrs. Cultivation in SIEM without any additional substance served as control condition.
Samples were taken from the lumen and the dialysate every 24 hrs (t0, t24, t48 and t72) to study the metabolic activity of the gut microbiota (SCFA production) and changes in composition of the gut microbiota (16S rRNA gene analysis).
Samples were analyzed for SCFA by ion-chromatography.
A second TIM-2 study was performed, using conditions as described under Example 3 but applying a different human fecal microbiota (termed microbiota 2), to assess whether the observed effects are dependent on the initial microbiota composition.
T1=EPA/DHA-Lys (ω-3); T2=L-rhamnose.

[3] = cited from earlier work
human fecal microbiota = assay: I-screen intestinal screening model, SCFA production (Example 1); type: cell-based; conditions: 24 h incubation, mean of triplicates
Description: as §1, with “previously. These standard adult gut microbiota sets were stored at −80° C. in 12% glycerol.” for “previously.”
as §2, §3, §4

NCCCC[C@H](N)C(=O)O [Lys, L-lysine]
Propionate/acetate ratio [1]: 0.40 | Acetate, change compared to control [1]: +8.81 mM | Propionate, change compared to control [1]: +2.12 mM | n-Butyrate, change compared to control [1]: +0.29 mM

CCCC(=O)O [butyrate]
Systemic availability of colonic SCFA [2]: ~2%

N=C(N)NCCC[C@H](N)C(=O)O [Arg, L-arginine]
Propionate/acetate ratio [1]: 0.40 | Acetate, change compared to control [1]: +8.29 mM | Propionate, change compared to control [1]: +2.02 mM | n-Butyrate, change compared to control [1]: +0.71 mM

C[C@H](O)[C@H](O)[C@@H](O)[C@@H](O)C=O [rhamnose, L-rhamnose]
Cumulative production of acetate (human fecal microbiota 1; 0 h): 0.00 mmol | Cumulative production of butyrate (human fecal microbiota 1; 0 h): 0.00 mmol | Cumulative production of propionate (human fecal microbiota 1; 0 h): 0.00 mmol | Pr/Ac (propionate-to-acetate ratio) (human fecal microbiota 1; 24 h): 0.57 | Cumulative production of acetate (human fecal microbiota 1; 24 h): 25.30 mmol | Cumulative production of butyrate (human fecal microbiota 1; 24 h): 15.69 mmol | Cumulative production of propionate (human fecal microbiota 1; 24 h): 14.30 mmol | Pr/Ac (propionate-to-acetate ratio) (human fecal microbiota 1; 48 h): 0.56 | Cumulative production of acetate (human fecal microbiota 1; 48 h): 56.28 mmol | Cumulative production of butyrate (human fecal microbiota 1; 48 h): 35.02 mmol | Cumulative production of propionate (human fecal microbiota 1; 48 h): 31.64 mmol | Pr/Ac (propionate-to-acetate ratio) (human fecal microbiota 1; 72 h): 0.56 | Cumulative production of acetate (human fecal microbiota 1; 72 h): 81.62 mmol | Cumulative production of butyrate (human fecal microbiota 1; 72 h): 52.10 mmol | Cumulative production of propionate (human fecal microbiota 1; 72 h): 45.41 mmol | Ratio of SCFA: acetate as percentage of acetate + propionate + butyrate (human fecal microbiota 1; microbiota 1, average): 51.1% | Ratio of SCFA: butyrate as percentage of acetate + propionate + butyrate (human fecal microbiota 1; microbiota 1, average): 28.1% | Ratio of SCFA: propionate as percentage of acetate + propionate + butyrate (human fecal microbiota 1; microbiota 1, average): 20.8% | Cumulative production of acetate (human fecal microbiota 2; 0 h): 0.00 mmol | Cumulative production of butyrate (human fecal microbiota 2; 0 h): 0.00 mmol | Cumulative production of propionate (human fecal microbiota 2; 0 h): 0.00 mmol | Pr/Ac (propionate-to-acetate ratio) (human fecal microbiota 2; 24 h): 0.57 | Cumulative production of acetate (human fecal microbiota 2; 24 h): 25.30 mmol | Cumulative production of butyrate (human fecal microbiota 2; 24 h): 15.69 mmol | Cumulative production of propionate (human fecal microbiota 2; 24 h): 14.30 mmol | Pr/Ac (propionate-to-acetate ratio) (human fecal microbiota 2; 48 h): 0.56 | Cumulative production of acetate (human fecal microbiota 2; 48 h): 56.28 mmol | Cumulative production of butyrate (human fecal microbiota 2; 48 h): 35.02 mmol | Cumulative production of propionate (human fecal microbiota 2; 48 h): 31.64 mmol | Pr/Ac (propionate-to-acetate ratio) (human fecal microbiota 2; 72 h): 0.56 | Cumulative production of acetate (human fecal microbiota 2; 72 h): 81.62 mmol | Cumulative production of butyrate (human fecal microbiota 2; 72 h): 52.10 mmol | Cumulative production of propionate (human fecal microbiota 2; 72 h): 45.41 mmol | Ratio of SCFA: acetate as percentage of acetate + propionate + butyrate (human fecal microbiota 2; microbiota 2, average): 45.7% | Ratio of SCFA: butyrate as percentage of acetate + propionate + butyrate (human fecal microbiota 2; microbiota 2, average): 29.0% | Ratio of SCFA: propionate as percentage of acetate + propionate + butyrate (human fecal microbiota 2; microbiota 2, average): 25.3% | Circulating propionate after L-rhamnose ([3]; acute intake of 25 g L-rhamnose): significant increase | Serum propionate after L-rhamnose ([3]; up to 25.5 g L-rhamnose/day for seven days): no increase

Inulin
n-Butyrate, change compared to control (human fecal microbiota): +0.46 mM | Propionate, change compared to control (human fecal microbiota; controls ~8 mM propionate): +0.03 mM | Acetate, change compared to control (human fecal microbiota; controls ~40 mM acetate): +5.87 mM

NCCC[C@H](N)C(=O)O [Orn, L-ornithine]
Propionate/acetate ratio [1]: 0.36 | Acetate, change compared to control [1]: +10.15 mM | Propionate, change compared to control [1]: +1.74 mM | n-Butyrate, change compared to control [1]: +0.19 mM

CC(=O)O [acetate]
Systemic availability of colonic SCFA [2]: ~36%
